Data as given in a melting point compilation (Tetko et al.; mined from patent text by program, amines drawn as free bases though some values may be those of a salt).
Starred links: 1 amine or outer side, 2 acyl side, 3 side chain; linkers in the order of their positions; H or OH if unused. Non-standard residues stand in square brackets, D forms with d. Residues, ends and D or L forms follow the SMILES beside them. *: point of attachment. Hyp = O=C(O)[C@@H]1C[C@@H](O)CN1; βNA = c1ccc2cc(N*)ccc2c1; 2Abz = Nc1ccccc1C(=O)O; CO = O=C([*:1])[*:2]; Bn = c1ccc(C*)cc1

Row | Structure (SMILES) | melting point
1 | COC(=O)c1ccc2c(c1)S(=O)(=O)c1ccccc1C2=O | 145 to 146 °C
2 | Cc1ccsc1CN(O)C(N)=O | 110 °C
3 | C=C[Si]12OC3CC(CC(C3)O1)O2 | 116 °C
4 | CC1(N2C(=O)c3cccc([N+](=O)[O-])c3C2=O)CCC(=O)NC1=O (stereo not drawn) | 265 to 266 °C
5 | O=C(O)CCCc1ccc(S(=O)(=O)Nc2ccc(Cl)cc2)cn1 | 150 to 152 °C
6 | OCC1OC(n2cnc3c(NC4CCC(O)C4)ncnc32)C(O)C1O (stereo not drawn) | 208 to 210 °C
7 | COc1ccc(Oc2ccc(OC(=O)NC(C)CCCC(C)C)cc2)cc1 (stereo not drawn) | 64 to 65 °C
8 | COc1ccc(C=C(C#N)c2ccncc2)cc1OC1CCCC1 | 125 to 127 °C
9 | Cc1cc(Cl)c(O)cc1N | 144 °C
10 | CCCCC1(CC)CSC2=CC=CC3=CNCC32C(c2ccccc2)=N1 (stereo not drawn) | 145 to 146 °C
11 | CC(C)(C)OC(=O)NC[C@H]1CC[C@H](CI)CC1 | 81 to 83 °C
12 | CC12CC(F)C3(Br)C(CCC4=CC(=O)CCC43C)C1CCC2=O (stereo not drawn) | 165 to 166 °C
13 | c1ccc(CN(c2ccccc2)c2ccc(N(Cc3ccccc3)c3ccccc3)cc2)cc1 | 149 to 151 °C
14 | O=C(CSc1ccccc1)NNC(=O)N1Cc2ccccc2Oc2ccc(Cl)cc21 | 172 to 175 °C
15 | Cc1c(C(=O)OCc2ccc(Cl)cc2)oc2cccc(O)c12 | 202 to 204 °C
16 | CCn1ncc2c3onc(-c4ccc(Cl)cc4)c3cnc21 | 195 to 197 °C
17 | CC(C)(CC(=O)c1ccc(Cl)c(Cl)c1)C(=O)O | 137 to 138 °C
18 | Cc1ccc(Nc2ccc3c4c(cccc24)CC3)cc1 | 96.2 to 96.8 °C
19 | O=C1CCc2ccc(C(F)(F)F)cc2CC1 | 78 °C
20 | Nc1cccc(Oc2ccc(-c3ccc(Oc4cccc(N)c4)cc3)cc2)c1 | 144 to 146 °C
21 | Cc1oc(C=Cc2cccc(Cl)c2)nc1CO | 147 to 148 °C

Row | Structure (SMILES) | melting point
22 | N#Cc1cnn(-c2ncc(C(F)(F)F)cc2Cl)c1C=CC(=O)O | 225 to 228 °C
23 | C[Si](C)(C)CCCOc1ccc(C(=O)O)c(O)c1 | 187 °C
24 | CC1(C)Nc2ccccc2NC1=S | 140 to 142 °C
25 | NC(=O)N(O)Cc1ccc(Sc2ccc(Cl)cc2)s1 | 158 to 160 °C
26 | O=C(O)CSc1nc(-c2ccc(Cl)cc2)no1 | 112 to 114 °C
27 | CCC(CC)Nc1c([N+](=O)[O-])cc(C)c(N)c1[N+](=O)[O-] | 157 to 160 °C
28 | COc1ccc(-c2cc3cc(Cl)ccc3o2)cc1 | 183 to 185 °C
29 | CC(C)(C)OC(=O)N(C[C@H](O)COc1ccc(OCc2ccccc2)cc1)C1CN(C(c2ccccc2)c2ccccc2)C1 | 95 to 96 °C
30 | Cc1cccc(CCN2CCC[C@H](C(C#N)(c3ccccc3)c3ccccc3)C2)c1 | 149 to 150 °C
31 | CCCc1nc2c(N)nc3c(c2n1CCCC(=O)N1CCOCC1)CCCC3 | 181 to 183 °C
32 | OC1CSC(Oc2cccnc2-c2ccco2)C(O)C1O (stereo not drawn) | 184 °C
33 | Nc1cccc(P(=O)(O)O)c1 | 300 °C
34 | O=C(O)Cc1ccc(Cc2ccccc2CC(=O)O)cc1 | 155 to 156 °C
35 | COc1ccc(-c2nc(-c3ncc4c(n3)CCCC4)ccc2C)nc1 | 157 to 158 °C
36 | CNC(=O)[C@@H]1C[C@@H](OCC2CC2)CN1S(=O)(=O)c1ccc(Cl)c(CBr)c1Cl | 161 °C
37 | COc1cc(I)ccc1C(=O)Nc1ccc(OC)c(N2CCN(C)CC2)c1 | 168 to 170 °C
38 | CCCCCCCCCCCCCCOc1ccc2ccc(=O)oc2c1 | 59 to 60 °C
39 | CC(=O)NC[C@H]1CN(c2ccc(N3CCC(F)(CO)CC3)c(F)c2)C(=O)O1 | 154 to 156 °C
40 | CC(=O)Nc1ccc(S(=O)(=O)c2cccc(Cl)c2)cc1 | 149 to 150 °C
41 | O=C(NC1(C(=O)Nc2nncs2)CCCC1)OCc1ccccc1 | 229 to 233 °C
42 | COCCCNc1ncnc2c1sc1nc(N3CCOCC3)c3c(c12)CC(C)(C)OC3 | 178 to 179 °C

Row | Structure (SMILES) | melting point
43 | Cc1ccc(OC2CCN(C(=O)C(=O)Nc3ccc4c(c3)CC(=O)N4)CC2)cc1 | 109 to 112 °C
44 | COc1cc(Cl)c(N)cc1C(=O)N[C@H]1CCNC[C@H]1OC (relative stereo) | 192 °C
45 | O=C(Nc1ccccc1)O[C@@H]1CN=C(c2ccccc2F)O[C@H]1c1ccccc1 (racemic) | 128 °C
46 | CS(=O)(=O)c1nnc(-c2ccc(Cl)cc2)o1 | 159 to 160 °C
47 | N#Cc1cc(Sc2ccc(Cl)c(Cl)c2)ccc1N | 126 to 128 °C
48 | Clc1cccc(Nc2ccccc2)c1 | 128 to 138 °C
49 | Cc1ccc(S(=O)(=O)OCC2Cc3cccc(Br)c3O2)cc1 (stereo not drawn) | 120 to 122 °C
50 | Cc1ccc(S(=O)(=O)OCCNC(=O)OC(C)(C)C)cc1 | 64 to 66 °C
51 | O=C1NC(N2CCCCCC2)=N/C1=C\c1c[nH]c2ncc(Cl)cc12 | 310 to 320 °C
52 | O=P(O)(O)C(NCCCCOc1ccccc1)P(=O)(O)O | 206 to 208 °C
53 | O=S(=O)(c1ccc(Br)cc1)n1ccc2ccccc21 | 106 °C
54 | COc1cc2c(c3c1OC(C)(C)C3)C(c1ccc(=O)[nH]c1)=NC(C)(C)C2 | 195 to 196 °C
55 | O=C(O)c1ccccc1NC(=O)[C@@H]1CCCN1C(=O)[C@@H]1C[C@@H](OCc2ccccc2)CN1C(=O)Nc1ccc2ccccc2c1 ({βNA-CO}-[Hyp](Bn)-Pro-[2Abz]-OH) | 156 °C
56 | CCCOc1cc(C(=O)O)cc(S(N)(=O)=O)c1-c1ccccc1 | 155 to 157 °C
57 | O=C(CBr)N[C@H](CO)Cc1ccccc1 | 83 to 85 °C
58 | CCNc1ncc(S(=O)(=O)NCC)cc1[N+](=O)[O-] | 153 to 155 °C
59 | CC(C(=NO)c1ccc(Cl)cc1Cl)c1cccnc1 (stereo not drawn) | 163 to 165 °C
60 | NC(=O)N1CCCN(NC(=O)OCc2ccccc2)C1=O | 136 °C
61 | O=C(O)c1cc(NCc2ccc([N+](=O)[O-])cc2)ccc1O | 211 to 212 °C
62 | O=S1(=O)N=C(NC2CCCC2)Nc2cc(F)ccc21 | 295 to 298 °C

Results, then the compound that gave them:

Row | melting point | Structure (SMILES)
63 | 129 to 130 °C | CNc1nc2c(C)cccc2c2c1ccn2-c1ccccc1C
64 | 219 to 221 °C | N#Cc1cnc2sc(-c3ccccc3)cc2c1NCc1ccc2[nH]ccc2c1
65 | 123 to 124 °C | CCOC(=O)Cn1c(-c2ccc(Cl)cc2)nc2cccnc21
66 | 270 °C | Cn1nc(-c2cnc(N)nc2-c2cccs2)ccc1=O
67 | 103 to 105 °C | CCOC(=O)CN=C1N[C@](C)(Cc2ccc(Br)cc2)C(=O)N1c1cc(Cl)cc(Cl)c1
68 | 71 to 72 °C | CCOC(=O)c1cc2cccnc2n1Cc1ccccc1
69 | 224 °C | CCCCc1cn(Cc2ccc(C(=O)O)cc2)c2ccccc2c1=O
70 | 107 to 109 °C | COC(=O)C1=C(C)NC(C)=CC1c1ccccc1OCc1ccc(C)cc1 (stereo not drawn)
71 | 121 to 123 °C | COc1ccc(C(=O)[C@H]2CCCN2C(=O)C(F)(F)F)cc1OC
72 | 194 to 195 °C | COc1ccc(-c2ccc3ccccc3c2C(=O)N(C)C)cc1
73 | 121 °C | C[C@H](N=Cc1ccc(OCc2ccccc2F)cc1)C(N)=O
74 | 93.5 to 95.5 °C | CCOCCOc1nc2c(c3ccccc13)c1cc(Cl)ccc1n2C
75 | 148 to 150 °C | CC(C)=NOCc1nc2c(N)nc3cccnc3c2n1CCCNC(=O)OC(C)(C)C
76 | 81 to 82 °C | Cc1oc(-c2ccccc2)nc1COc1cccc(CON)c1
77 | 79 to 88 °C | CCCCN(Cc1ccc(-c2ccccc2-c2nnn[nH]2)cc1)c1ncncc1C(=O)OC(C)OC(=O)c1ccccc1 (stereo not drawn)
78 | 272 to 274 °C | Cn1ncc2c3[nH]n(-c4ccc(S(N)(=O)=O)cc4)c(=O)c3c(-c3cccc(C(F)(F)F)c3)nc21
79 | 222 to 224 °C | CN1C(=O)C2c3c([nH]c4ncccc34)-c3nccn3C2C1=O (stereo not drawn)
80 | 123 to 126 °C | O=C(NC1CCc2[nH]c3ccc(OC(F)(F)F)cc3c2C1)OCc1ccccc1 (stereo not drawn)
81 | 74 to 75.5 °C | COc1cccc(Cc2cc3ccccc3s2)c1
82 | 164 °C | CCOc1ccc2c(c1)n(C1CCCCC1)c(=O)n2Cc1ccc(C(=O)NC(C)(C)CC)cc1OC
83 | 184 to 185 °C | CN(C)CCCSC1=C(C#N)C(c2ccccn2)(c2ccccn2)C(=O)N1

Row | melting point | Structure (SMILES)
84 | 116 to 118 °C | CCCCCS(=O)(=O)NC(=O)/C=C/c1ccc(OCCCOC)cc1Oc1ncc(C(F)(F)F)cc1Cl
85 | 113 to 114 °C | Cc1cc(OCc2coc(/C=C/c3ccc(S(=O)C(F)(F)F)cc3)n2)ccc1CCCCn1ccnn1 (stereo not drawn)
86 | 166 to 167 °C | COc1ccc2c(c1)sc1ncc(C(O)CCc3ccccc3)n12 (stereo not drawn)
87 | 219 to 222 °C | CC(=O)Nc1ccc2sc3ccc(Br)cc3c(=O)c2c1
88 | 45 to 47 °C | COc1cc2c(cc1O)C(OC)CN(Cc1ccccc1OC)C2 (stereo not drawn)
89 | 310 to 313 °C | Cc1c2c(c(-c3ccc4c(c3)OCO4)c3c4c(ccc13)OCO4)C(=O)NC2=O
90 | 155 to 157 °C | CCC(CC)n1c(=O)ccc2cnc(Nc3ccc(N4CCN(C)CC4)cc3)nc21
91 | 183 to 185 °C | CCOC(=O)c1cn(CCF)c2nc(N3CCN(C(C)=O)CC3)c(F)cc2c1=O
92 | 217 °C | Cc1nc2ccccn2c1Cc1ccc(C(=O)O)cc1
93 | 142 to 144 °C | COc1ccc2c(C(=O)N(C=O)CC(=O)O)cccc2c1C(F)(F)F
94 | 233 °C | CNc1nc(-c2ccc(C(F)(F)F)cc2)c2cc(C)sc2n1
95 | 251 to 252 °C | COc1cccc([C@H]2O[C@H](CC(=O)Nc3nc(C)c(C(=O)O)s3)C(=O)N(CC(C)(C)CO)c3ccc(Cl)cc32)c1OC
96 | 187 to 189 °C | CN(C)C=CC(=O)c1c(-c2ccccc2Cl)nc2occn12
97 | 128 to 130 °C | O=C1CCCc2nc(-c3ccccc3)ccc21
98 | 174 to 175 °C | CC(C)Cn1c(=O)n(C)c(=O)c2c(Sc3nc(Br)n[nH]3)c(Cc3ccccc3C(F)(F)F)sc21
99 | 145 to 147 °C | CCc1[nH][nH]c(=O)c1Cc1ccc2ccccc2c1
100 | 172 °C | Cc1nc2c(N)nc3cc(OCc4ccccc4)ccc3c2n1CC(C)C
101 | 260 to 262 °C | Cn1c(C(F)(F)F)cc(=O)n(-c2ccc3snc(C=C(Br)Br)c3c2)c1=O
102 | 123 to 124 °C | COc1cc(NCCCCCCN2C(=O)c3ccccc3C2=O)c2ncccc2c1
103 | 120 to 122 °C | O=C1CCC(Cc2ccc3ccccc3c2)=C1O
